Values of other authors, collected in patent US5028528A, “Analytical element for theophylline determination using buffer in a subbing zone” (Eastman Kodak Company, priority 1988, dated 1991).

Conditions: in a patient

## Cn1c(=O)c2[nH]cnc2n(C)c1=O [Theophylline]
  therapeutic range of use: 1 to 2 mg/dL
